# Source: PubChem BioAssay (NCI)
#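 Results reflect a 48-hour exposure of cells in 96-well plates to compound at five concentrations. Abbreviation: GI50, concentration required for 50% inhibition of growth. TGI is the concentration that stops growth completely.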
# How the values were obtained:
# Experiment in all cases: NCI-60 cell line screen, 48 h
# A498 renal = system: A498 renal
# UO-31 renal = system: UO-31 renal
# HOP-92 NSCLC = system: HOP-92 NSCLC
# SK-MEL-28 melanoma = system: SK-MEL-28 melanoma
# TK-10 renal = system: TK-10 renal
# LOX IMVI melanoma = system: LOX IMVI melanoma
# OVCAR-8 ovarian = system: OVCAR-8 ovarian
# ACHN renal = system: ACHN renal
# OVCAR-5 ovarian = system: OVCAR-5 ovarian
# SNB-75 CNS = system: SNB-75 CNS
# DU-145 prostate = system: DU-145 prostate
# UACC-62 melanoma = system: UACC-62 melanoma
# SF-539 CNS = system: SF-539 CNS
# OVCAR-4 ovarian = system: OVCAR-4 ovarian
# MDA-MB-231 breast = system: MDA-MB-231 breast
# RXF 393 renal = system: RXF 393 renal
smiles,measurement,setting,value
C=C(C)[C@@H]1CC[C@]2(COCCCNCCCN)CC[C@]3(C)[C@H](CC[C@@H]4[C@@]5(C)CC[C@H](O)C(C)(C)[C@@H]5CC[C@]43C)[C@@H]12,GI50,A498 renal,1850 nM
same,TGI,A498 renal,4210 nM
same,GI50,UO-31 renal,1600 nM
same,TGI,UO-31 renal,3030 nM
same,GI50,HOP-92 NSCLC,1520 nM
same,TGI,HOP-92 NSCLC,3140 nM
same,GI50,SK-MEL-28 melanoma,1750 nM
same,TGI,SK-MEL-28 melanoma,3370 nM
same,GI50,TK-10 renal,1840 nM
same,TGI,TK-10 renal,3560 nM
same,GI50,LOX IMVI melanoma,234 nM
same,TGI,LOX IMVI melanoma,2280 nM
same,GI50,OVCAR-8 ovarian,2140 nM
same,TGI,OVCAR-8 ovarian,4880 nM
same,GI50,ACHN renal,1780 nM
same,TGI,ACHN renal,3240 nM
same,GI50,OVCAR-5 ovarian,1750 nM
same,TGI,OVCAR-5 ovarian,3230 nM
same,GI50,SNB-75 CNS,1730 nM
same,TGI,SNB-75 CNS,3370 nM
same,GI50,DU-145 prostate,1940 nM
same,TGI,DU-145 prostate,3490 nM
same,GI50,UACC-62 melanoma,1770 nM
same,TGI,UACC-62 melanoma,3390 nM
same,GI50,SF-539 CNS,1770 nM
same,TGI,SF-539 CNS,3390 nM
same,GI50,OVCAR-4 ovarian,1960 nM
same,TGI,OVCAR-4 ovarian,3730 nM
same,GI50,MDA-MB-231 breast,1850 nM
same,TGI,MDA-MB-231 breast,3490 nM
same,GI50,RXF 393 renal,1570 nM
same,TGI,RXF 393 renal,2960 nM
